Drawing on US8101648B2, “Hydroxybenzamide derivatives and their use as inhibitors of HSP90” (Astex Therapeutics, Ltd., priority 2005, dated 2012), this text covers IC50 and Kd for 26 compounds.

Each structure is given as a SMILES string. Structures can show the parent of a compound that is named as a salt. Where two headings read alike, the source gives them in different places. Bounds are passed on as bounds.

The term IC50 denotes the midpoint of a concentration-inhibition curve. By Kd is commonly meant a measure of binding affinity in units of concentration. Read a low Kd as a tighter complex.

The test system of one assay is HCT116 cell line. The experiment in a line: Anti-proliferative activity, Alamar Blue assay. The format is cell-based, human. On the procedure:
The anti-proliferative activities of compounds of the invention can be determined by measuring the ability of the compounds to inhibition of cell growth in a number of cell lines such as the human colon cancer cell line HCT116. […] The method is based on the ability of viable cells to reduce resazurin to its fluorescent product resorufin. […] The number of viable cells is determined by Alamar Blue assay as before. Cell lines can be obtained from the ECACC (European Collection of cell Cultures).
(Resazurin is reduced to fluorescent resorufin, in cell work by metabolically active cells.)

The target of assay [1] is T1, human Hsp90α N-terminal domain (Homo sapiens, UniProt P07900).
T1 construct: Cloning, expression, and purification of the Human Hsp90α N-terminal domain were performed according to published methods; made in house
The experiment in a line: Isothermal titration calorimetry (ITC) binding. The conditions noted are these: 25 mM Tris, 100 mM NaCl, 1 mM MgCl2, 1 mM TCEP, 5% DMSO, pH 7.4. The method, then: The ability of the compounds of the invention to bind to human Hsp90 proteins was determined using isothermal titration calorimetry.
Isothermal titration calorimetry (ITC) experiments were performed with a VP-ITC titration calorimeter (Microcal Inc., Northampton, Mass., USA). […] All solutions were filtered and degassed prior to a titration being carried out. The enthalpy change resulting from each injection of ligand was obtained through integration of the calorimetric signal. Data were analysed using Origin 7.0 (Microcal Software Inc., Northampton, Mass.). Heats of dilution were estimated using the final injections of each individual titration and subtracted before data fitting. Different ITC experimental formats were employed in order to obtain compound dissociation constants (Kd's) over a wide range of affinities. […] In this type of experiment the stoichiometry parameter (N) was locked at 1 for data fitting. […] For the majority of these experiments the protein concentration in the calorimetric cell was in the range […] and the ligand concentration in the injection syringe ranged from […].
On the technique in general: In ITC the heat of successive injections is recorded.

[2] abbreviates: HCT-116, human colon cancer cell line HCT116, 72 hours with compound, read-out: IC50.

Regarding `O=C(c1cc(Br)c(O)cc1O)N1Cc2ccccc2C1` [Example 19, (5-Bromo-2,4-dihydroxy-phenyl)-(1,3-dihydro-isoindol-2-yl)-methanone], in the assay on HCT116 cell line (setting [2]), the IC50 was less than 1 µM.
Consider `CC(C)c1cc(C(=O)N2Cc3ccccc3C2)c(O)cc1O` [Example 5], for which the IC50 with HCT116 cell line (Homo sapiens, HCT-116, 72 h) was less than 1 µM.
For the compound `COC(=O)c1ccc2c(c1)CN(C(=O)c1cc(C(C)C)c(O)cc1O)C2` [Example 43, 2-(2,4-dihydroxy-5-isopropyl-benzoyl)-2,3-dihydro-1H-isoindole-5-carboxylic acid methyl ester], the IC50 in the assay with HCT116 cell line (setting [2]) was less than 1 µM. This compound also showed a Kd in assay [1] of less than 0.1 µM.
Turning to `CC(C)c1cc(C(=O)N2Cc3ccc(C(=O)N4CCNCC4)cc3C2)c(O)cc1O` [Example 54, (2,4-dihydroxy-5-isopropyl-phenyl)-[5-(piperazine-1-carbonyl)-1,3-dihydro-isoindol-2-yl]-methanone hydrochloride], in the assay with HCT116 cell line (Homo sapiens, HCT-116, 72 h), the IC50 was less than 1 µM. The Kd in assay [1] was less than 0.1 µM.
Turning to `CN1CCN(c2ccc3c(c2)CN(C(=O)c2cc(Cl)c(O)cc2O)C3)CC1` [Example 75, (5-Chloro-2,4-dihydroxy-phenyl)-[5-(4-methyl-piperazin-1-yl)-1,3-dihydro-isoindol-2-yl]-methanone], the IC50 with HCT116 cell line (setting [2]) was less than 1 µM. In addition, the Kd in assay [1] was less than 0.1 µM.
In the case of `CC(C)c1cc(C(=O)N2Cc3ccc(C(=O)O)cc3C2)c(O)cc1O` [Example 44, 2-(2,4-dihydroxy-5-isopropyl-benzoyl)-2,3-dihydro-1H-isoindole-5-carboxylic acid], the Kd in assay [1] was less than 0.1 µM.
Consider `CC(C)c1cc(C(=O)N2Cc3ccc(N4CCN(C(C)C)CC4)cc3C2)c(O)cc1O` [Example 62, (2,4-Dihydroxy-5-isopropyl-phenyl)-[5-(4-isopropyl-piperazin-1-yl)-1,3-dihydro-isoindol-2-yl]-methanone], for which the IC50 in the assay with HCT116 cell line (setting [2]) was less than 1 µM. Further, in assay [1], the Kd was less than 0.1 µM.
`CC(C)c1cc(C(=O)N2Cc3ccccc3C2)ccc1O` [Example 10, (1,3-Dihydro-isoindol-2-yl)-(4-hydroxy-3-isopropyl-phenyl)-methanone] showed a Kd in assay [1] of less than 0.1 µM.
Take `CC(C)c1cc(C(=O)N2CC3CC2CO3)c(O)cc1O` (stereo not shown) [Example 37, (2,4-dihydroxy-5-isopropyl-phenyl)-(2-oxa-5-aza-bicyclo[2.2.1]hept-5-yl)-methanone]: in the assay with HCT116 cell line (setting [2]), the IC50 is less than 1 µM. Also, the Kd in assay [1] is less than 0.1 µM.
On to `COCCOCCOc1cccc2c1CN(C(=O)c1cc(C(C)C)c(O)cc1O)C2` [Example 21, (2,4-Dihydroxy-5-isopropyl-phenyl)-{4-[2-(2-methoxy-ethoxy)-ethoxy]-1,3-dihydro-isoindol-2-yl}methanone], for which the IC50 in the assay on HCT116 cell line (setting [2]) is less than 1 µM. In assay [1], the Kd was less than 0.1 µM.
The matching figures for `CC(C)c1cc(C(=O)N2Cc3ccc(CN4CCCCC4)cc3C2)c(O)cc1O` [Example 72, (2,4-Dihydroxy-5-isopropyl-phenyl)-(5-piperidin-1-ylmethyl-1,3-dihydro-isoindol-2-yl)-methanone]: less than 1 µM and less than 0.1 µM.
The matching figures for `CC(C)c1cc(C(=O)N2CCc3ccccc3C2)c(O)cc1O` [Example 38, (3,4-dihydro-1H-isoquinolin-2-yl)-(2,4-dihydroxy-5-isopropyl-phenyl)-methanone]: less than 1 µM and less than 0.1 µM.
The matching figures for `CC(C)NCCOc1ccc2c(c1)CN(C(=O)c1cc(C(C)C)c(O)cc1O)C2` [Example 48, (2,4-dihydroxy-5-isopropyl-phenyl)-[5-(2-isopropylamino-ethoxy)-1,3-dihydro-isoindol-2-yl]-methanone]: less than 1 µM and less than 0.1 µM.
With `COc1cc2c(cc1Cl)CN(C(=O)c1cc(C(C)C)c(O)cc1O)C2` [Example 33, (5-chloro-6-methoxy-1,3-dihydro-iso-indol-2-yl)-(2,4-dihydroxy-5-isopropyl-phenyl)-methanone], the IC50 in the assay with HCT116 cell line (setting [2]) was less than 1 µM. In assay [1], this compound gave a Kd of less than 0.1 µM.
Turning to `COc1ccc2c(c1)CN(C(=O)c1cc(C(C)C)c(O)cc1O)C2` [Example 40, (2,4-dihydroxy-5-isopropyl-phenyl)-(5-methoxy-1,3-dihydro-isoindol-2-yl)-methanone], the IC50 in the assay with HCT116 cell line (setting [2]) is less than 1 µM. This compound registered a Kd in assay [1] of less than 0.1 µM.
Take `CC(C)c1cc(C(=O)N2Cc3ccc(OCCNC(=O)CN4CCOCC4)cc3C2)c(O)cc1O` [Example 49]: the IC50 in the assay with HCT116 cell line (setting [2]) is less than 1 µM. The compound also gave a Kd in assay [1] of less than 0.1 µM.
In the case of `CC(C)c1cc(C(=O)N2Cc3cccc(NC4CCNCC4)c3C2)c(O)cc1O` [Example 67, (2,4-dihydroxy-5-isopropyl-phenyl)-[4-(piperidin-4-ylamino)-1,3-dihydro-isoindol-2-yl]-methanone], in the assay with HCT116 cell line (setting [2]), the IC50 was less than 1 µM. Further, the Kd in assay [1] is less than 0.1 µM.
In the same order, the values of `CC(C)c1cc(C(=O)N2Cc3ccc(N4CCC(N5CCN(C)CC5)CC4)cc3C2)c(O)cc1O` [Example 51, (2,4-dihydroxy-5-isopropyl-phenyl)-{5-[4-(4-methyl-piperazin-1-yl)-piperidin-1-yl]-1,3-dihydro-isoindol-2-yl}-methanone] are less than 1 µM and less than 0.1 µM.
The matching figures for `CC(C)c1cc(C(=O)N2Cc3cc(O)c(Cl)cc3C2)c(O)cc1O` [Example 74, (5-chloro-6-hydroxy-1,3-dihydro-isoindol-dihydroxy-5-isopropyl-phenyl)-methanone]: less than 1 µM and less than 0.1 µM.
The matching figures for `CC(C)c1cc(C(=O)N2Cc3ccc(N4CCC(N5CCOCC5)CC4)cc3C2)c(O)cc1O` [Example 60, (2,4-Dihydroxy-5-isopropyl-phenyl)-[5-(4-morpholin-4-yl-piperidin-1-yl)-1,3-dihydro-isoindol-2-yl]-methanone]: less than 1 µM and less than 0.1 µM.
Turning to `CC(C)c1cc(C(=O)N2Cc3ccc(N)cc3C2)c(O)cc1O` [Example 39, (5-amino-1,3-dihydro-isoindol-2-yl)-(2,4-dihydroxy-5-isopropyl-phenyl)-methanone], the IC50 in the assay on HCT116 cell line (setting [2]) is less than 1 µM. The Kd in assay [1] is less than 0.1 µM.
On to `CC(C)(C)c1cc(C(=O)N2CCc3ccccc3C2)ccc1O` [Example 11, (3-tert-Butyl-4-hydroxy-phenyl)-(3,4-dihydro-1H-isoquinolin-2-yl)-methanone], for which the Kd in assay [1] is less than 1 µM.
On to `CC(C)c1cc(C(=O)N2Cc3ccc(-c4ccc(N5CCNCC5)cc4)cc3C2)c(O)cc1O` [Example 52, (2,4-dihydroxy-5-isopropyl-phenyl)-[5-(4-piperazin-1-yl-phenyl)-1,3-dihydro-isoindol-2-yl]-methanone], for which the IC50 in the assay on HCT116 cell line (setting [2]) was less than 1 µM. In addition, in assay [1], the Kd was less than 1 µM.
Regarding `CC(C)c1cc(C(=O)N2Cc3ccc(C4(O)CCNCC4)cc3C2)c(O)cc1O` [Example 73, (2,4-Dihydroxy-5-isopropyl-phenyl)-[5-(4-hydroxypiperidin-4-yl)-1,3-dihydro-isoindol-2-yl]-methanone], the Kd in assay [1] was less than 0.1 µM.
As to `CC(C)c1cc(C(=O)N2Cc3ccc(N4CCN(CCO)CC4)cc3C2)c(O)cc1O` [Example 59, (2,4-Dihydroxy-5-isopropyl-phenyl)-{5-[4-(2-hydroxy-ethyl)-piperazin-1-yl]-1,3-dihydro-isoindol-2-yl}-methanone], the IC50 with HCT116 cell line (setting [2]) was less than 1 µM. The Kd in assay [1] was less than 0.1 µM.
Turning to `CC(C)c1cc(C(=O)N2Cc3ccc(CN4CCN(C)CC4)cc3C2)c(O)cc1O` [Example 55, (2,4-dihydroxy-5-isopropyl-phenyl)-[5-(4-methyl-piperazin-1-ylmethyl)-1,3-dihydro-isoindol-2-yl]-methanone], in the assay on HCT116 cell line (setting [2]), the IC50 was less than 1 µM. The compound also registered a Kd in assay [1] of less than 0.1 µM.
